# Experimental data from patent US12398375B2, “Methods for improved poxvirus yields” (priority 2018, dated 2025).
# Experiments:
# [1] = system: MYXV expressing a GFP reporter gene (vMyx-GFP) in human A549 cells; test: MYXV reporter gene (GFP) expression in human A549 cells, fluorescence microscopy; format: cell-based, Myxoma virus; conditions: human A549 cells pre-treated 1 h with different concentrations; vMyx-GFP MOI 1.0, 0.1 or 0.01; images at 48 h and 72 h post infection
# [2] = system: vMyx-GFP in human A549 cells; test: MYXV progeny virus titration assay (A549 infection, titrated on RK13 cells); format: cell-based, Myxoma virus; conditions: for levels of progeny virus (MYXV titers): A549 cells
# [3] = system: VACV expressing GFP (VACV-GFP) in human A549 cells; format: cell-based, vaccinia virus
# [4] = system: VACV-GFP in human A549 cells; format: cell-based, vaccinia virus
# HeLa cells = conditions: cited from earlier work
# CRM1 = CRM1 (Homo sapiens, UniProt O14980); conditions: reported (Dickmanns et al. 2015); cited from earlier work
# [5] = vMyx-GFP MOI 0.1 or 0.01, harvested after 48 h or 72 h, FIGS. 6A-6B
# [6] = vMyx-GFP MOI 1.0, 0.1 or 0.01, inhibitor 0.001, 0.01 or 0.1 μM, harvested after 48 h, FIGS. 5A-5D
# Sequence of CRM1 (O14980 whole entry): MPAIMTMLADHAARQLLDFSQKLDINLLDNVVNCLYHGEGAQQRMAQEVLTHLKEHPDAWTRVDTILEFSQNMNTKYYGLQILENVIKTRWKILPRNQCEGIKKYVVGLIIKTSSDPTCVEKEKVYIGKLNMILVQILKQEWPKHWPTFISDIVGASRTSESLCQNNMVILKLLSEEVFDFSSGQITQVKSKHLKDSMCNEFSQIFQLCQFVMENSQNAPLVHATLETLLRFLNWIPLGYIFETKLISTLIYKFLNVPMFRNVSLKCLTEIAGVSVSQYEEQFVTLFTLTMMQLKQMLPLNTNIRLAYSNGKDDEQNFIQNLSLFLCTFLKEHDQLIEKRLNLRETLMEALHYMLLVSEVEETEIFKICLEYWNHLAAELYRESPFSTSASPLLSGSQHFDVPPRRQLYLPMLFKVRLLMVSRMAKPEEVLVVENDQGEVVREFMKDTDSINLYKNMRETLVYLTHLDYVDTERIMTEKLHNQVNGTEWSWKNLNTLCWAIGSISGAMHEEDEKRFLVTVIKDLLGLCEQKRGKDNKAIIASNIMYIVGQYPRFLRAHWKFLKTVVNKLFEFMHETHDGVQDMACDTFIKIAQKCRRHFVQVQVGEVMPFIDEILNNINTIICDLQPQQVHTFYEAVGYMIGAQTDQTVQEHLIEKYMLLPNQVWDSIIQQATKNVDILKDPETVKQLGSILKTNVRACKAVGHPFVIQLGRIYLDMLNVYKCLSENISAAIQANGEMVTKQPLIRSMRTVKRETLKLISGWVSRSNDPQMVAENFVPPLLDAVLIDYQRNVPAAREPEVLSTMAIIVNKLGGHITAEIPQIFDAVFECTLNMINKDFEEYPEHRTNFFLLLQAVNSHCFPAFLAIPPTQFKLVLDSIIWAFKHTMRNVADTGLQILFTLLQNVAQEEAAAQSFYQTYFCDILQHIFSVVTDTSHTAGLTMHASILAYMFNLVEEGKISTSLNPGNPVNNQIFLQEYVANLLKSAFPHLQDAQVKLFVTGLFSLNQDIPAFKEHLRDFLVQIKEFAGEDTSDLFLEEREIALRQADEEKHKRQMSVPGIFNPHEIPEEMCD
Compound,"MYXV replication, as indicated by reporter gene expression (GFP fluorescence) [1]","levels of progeny virus (MYXV titers) [2, 5]","levels of progeny virus (MYXV titers) [2, 6]","VACV replication, as indicated by reporter gene expression (GFP fluorescence) [3]",levels of progeny virus (VACV titers) [4],concentration that arrests cells at the G1 phase (HeLa cells),"progeny virus production enhancement compared to the other tested drugs ([2]; FIGS. 6A and 6B, MOI 0.1 or 0.01, 48 h or 72 h)",concentration that shuts down CRM1-mediated nuclear protein export (CRM1)
CC(/C=C/C1CC=CC(=O)O1)=C\C(C)C/C=C/C(C)=C/C(C)C(=O)C(C)C(O)C(C)C/C(C)=C/C(=O)O (stereo not shown) [Anguinomycin A],enhanced MYXV replication,higher levels of progeny virus,higher levels of progeny virus,–,–,–,–,–
CC(/C=C/C[C@@H](C)/C=C(C)/C=C/[C@@H]1OC(=O)C=C[C@@H]1C)=C\[C@@H](C)C(=O)[C@@H](C)[C@H](O)[C@@H](C)C/C(C)=C/C(=O)O [Leptomycin A],enhanced myxoma virus (MYXV) replication,higher levels of progeny virus,higher levels of progeny virus,enhanced VACV replication,higher levels of progeny virus,–,–,–
CCC(=C/[C@H](C)C/C=C/C(C)=C/[C@@H](C)C(=O)[C@@H](C)[C@H](O)[C@@H](C)C/C(C)=C/C(=O)O)/C=C/[C@@H]1OC(=O)C=C[C@@H]1C [Leptomycin B],enhanced MYXV replication,higher levels of progeny virus,higher levels of progeny virus,enhanced VACV replication,higher levels of progeny virus,50 pg/mL,highest progeny virus production enhancement,–
Anguinomycin,–,–,–,–,–,–,–,above 10 nM
Ratjadone A,enhanced MYXV replication,higher levels of progeny virus,higher levels of progeny virus,–,–,–,–,–
